Measurements published in patent US11612612B2, “Pharmaceutical compositions” (CIPLA LIMITED, priority 2016, dated 2023).
Counter-ions that a name gives are not always drawn.

Columns and labels:
in vitro [1] = details: human, Caco-2
Method: (§1) Cells were treated with drugs as follows:
(§2) Stock preparations: 10 mM stocks of all the drugs were prepared in DMSO. The test concentrations were further prepared in HBSS buffer containing 10 mM MES hydrate pH 6.8 as per the plate plan. Also, HBSS buffer with 10 mM HEPES with pH 7.4 was prepared.
(§3) The sample were analyzed on LCMS-MS.

Caco-2 cells [2] = assay: in vitro
Method: as §1, §2, §3

[3] = male, Wistar, rat, in vivo, 300 mg
Method: The objective of this non-GLP study was to determine the pharmacokinetics of the TDF alone and in combinations with piperine in different groups of male Wistar rats after single dose intravenous administration and oral administration. This study was performed with approval from the Institutional Animal Ethics Committee (IAEC) in accordance with the requirement of Committee for the Purpose of Control and Supervision of Experiments on Animals (CPCSEA), India.
An equal volume (4.72 mL) of each formulation was mixed in separate vials to get 5 mL/kg.
An equal volume (5.61 mL) of each formulation was mixed in separate vials to get 5 mL/kg.
Bioanalysis was performed using fit-for-purpose LC-MS/MS method for the quantification of TDF and PMPA in rat plasma samples. […]
Plasma pharmacokinetic parameters were calculated using the non-compartmental analysis tool of Phoenix software (Version 6.3) and were determined from individual animals in each group. The peak plasma concentration (Cmax), time to achieve peak plasma concentration (Tmax), the area under the plasma concentration-time curve (AUC0-t and AUCinf), AUC Extra (%), elimination half-life (T½), clearance (CL), volume of distribution Vd (L/kg) and Mean residence time (MRT) were calculated from the intravenous group. […]

[4] = Caco-2 bidirectional assay, effect of piperine and tetrahydropiperine on permeability of TDF; details: human, Caco-2, pH 7.4
Method: Caco-2 cells were cultured in MEM media with 10% serum and seeded at a density of 75000 cells per mL and cultured for 21 days in a 24-well trans-well plate at 37° C., 5% CO2. The monolayer integrity was checked intermittently (Day 0-21) using Trans Epithelial Electric Resistance (TEER). Cells were treated with drugs as follows:
(§5) 400 μL samples were added to the wells as per the plate setup to the apical side in duplicates with 800 μL HBSS pH 7.4 in the basal wells. Samples were collected at 60, 90 and 120 minutes from the basal side. Mass balance samples at 0 and 120 minutes were collected from the apical side.
For B-A, 800 μL of the respective dilutions were added to the basal side in duplicates with 400 μL HBSS pH 7.4 in the apical wells. Samples were collected at 60, 90 and 120 minutes from the apical side. Mass balance samples at 0 and 120 minutes were collected from the basal side.
The sample were analyzed on LCMS-MS. At the end of the experiment the monolayer integrity was checked using and Lucifer yellow, calculating the % rejection of Lucifer yellow by incubating cells with 100 μg/mL Lucifer.
(§6) For Lucifer yellow, % Lucifer Yellow Passage=[RFU (test)−RFU (blank)/RFU (equilibrium)−RFU (blank)]*100

in vitro [5] = details: human, Caco-2, pH 7.4
Method: Caco-2 cells were cultured in MEM media with 10% serum and seeded at a density of 75000 cells per mL and cultured for 21 days in a 24-well trans-well plate at 37° C., 5% CO2. The monolayer integrity was checked intermittently (Day 0-21) using Trans Epithelial Electric Resistance (TEER).
as §5
For B-A, 800 μL of the respective dilutions were added to the basal side in duplicates with 400 μL HBSS pH 7.4 in the apical wells. Samples were collected at 60, 90 and 120 minutes from the apical side. Mass balance samples at 0 and 120 minutes were collected from the basal side. The sample were analyzed on LCMS-MS.
At the end of the experiment the monolayer integrity was checked using Lucifer yellow, and calculating the % rejection of Lucifer yellow by incubating cells with 100 μg/mL Lucifer.
as §6

P-gp = P-gp (Homo sapiens, UniProt P08183); assay: in vitro; format: cell-based; details: pH 7.4, drug alone (Digoxine 10 μM; TAF 100 μM)
Sequence of P-gp (P08183 whole entry): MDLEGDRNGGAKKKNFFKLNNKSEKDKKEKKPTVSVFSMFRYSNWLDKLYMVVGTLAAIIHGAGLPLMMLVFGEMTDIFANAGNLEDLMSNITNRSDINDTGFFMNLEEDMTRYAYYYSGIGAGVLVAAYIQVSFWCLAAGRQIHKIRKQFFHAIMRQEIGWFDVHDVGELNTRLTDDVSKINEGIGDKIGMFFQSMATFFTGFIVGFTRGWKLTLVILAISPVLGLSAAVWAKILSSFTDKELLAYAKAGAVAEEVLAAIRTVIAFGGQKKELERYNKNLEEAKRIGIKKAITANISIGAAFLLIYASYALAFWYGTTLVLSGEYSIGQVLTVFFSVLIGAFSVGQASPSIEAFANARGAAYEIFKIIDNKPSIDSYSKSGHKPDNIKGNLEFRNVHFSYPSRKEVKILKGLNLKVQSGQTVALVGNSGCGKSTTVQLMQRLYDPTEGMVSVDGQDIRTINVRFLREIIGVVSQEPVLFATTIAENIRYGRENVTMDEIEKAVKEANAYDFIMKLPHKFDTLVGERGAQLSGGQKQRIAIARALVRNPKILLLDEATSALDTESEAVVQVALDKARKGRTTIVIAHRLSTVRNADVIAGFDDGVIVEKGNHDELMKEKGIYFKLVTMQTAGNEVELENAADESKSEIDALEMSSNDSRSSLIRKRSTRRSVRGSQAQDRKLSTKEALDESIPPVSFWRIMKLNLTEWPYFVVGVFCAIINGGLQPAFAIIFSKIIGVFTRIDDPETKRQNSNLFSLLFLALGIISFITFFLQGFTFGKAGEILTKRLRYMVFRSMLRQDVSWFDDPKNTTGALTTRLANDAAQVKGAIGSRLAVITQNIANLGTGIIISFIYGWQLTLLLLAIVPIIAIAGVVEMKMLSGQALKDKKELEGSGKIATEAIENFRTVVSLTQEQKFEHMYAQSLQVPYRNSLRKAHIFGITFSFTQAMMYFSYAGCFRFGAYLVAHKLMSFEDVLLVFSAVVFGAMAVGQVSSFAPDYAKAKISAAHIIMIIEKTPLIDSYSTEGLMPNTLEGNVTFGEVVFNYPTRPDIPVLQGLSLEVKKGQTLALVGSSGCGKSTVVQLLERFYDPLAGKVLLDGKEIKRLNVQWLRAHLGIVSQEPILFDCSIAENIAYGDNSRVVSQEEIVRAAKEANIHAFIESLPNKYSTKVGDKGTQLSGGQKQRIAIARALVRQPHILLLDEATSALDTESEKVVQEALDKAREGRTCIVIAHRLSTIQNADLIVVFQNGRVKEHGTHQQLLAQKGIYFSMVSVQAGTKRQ
Method: as §1, §3

[6] = Caco-2 bidirectional assay, effect of piperine on permeability of dolutegravir; details: human, Caco-2, pH 7.4
Method: as §1
(§4) The samples were analyzed on LCMS-MS.

Caco-2 cells [7] = assay: as above; details: in words
Method: as §1, §4

[8] = Caco-2 bidirectional assay, effect of piperine on permeability of darunavir; format: in vitro ADME; details: human, Caco-2, pH 7.4
Method: as §1, §3

| Compound | Papp A→B at 120 min, 50 μM (in vitro [1]) | Papp A→B at 120 min, 100 μM (in vitro [1]) | Papp A→B at 120 min [4] | Papp B→A at 120 min [4] | Papp A→B at 120 min [6] | Papp B→A at 120 min [6] | Papp A→B at 120 min [8] | Papp B→A at 120 min [8] | further results |
| --- | --- | --- | --- | --- | --- | --- | --- | --- | --- |
| CC(C)OC(=O)OCOP(=O)(CO[C@H](C)Cn1cnc2c(N)ncnc21)OCOC(=O)OC(C)C [TDF, tenofovir disoproxil fumarate] | 6.58 ×10⁻⁶ cm/s | 6.35 ×10⁻⁶ cm/s | 2.55 ×10⁻⁶ cm/s | 15.2 ×10⁻⁶ cm/s | – | – | – | – | Permeability classification (Caco-2 cells [2]; Caco-2): low to moderately permeable; Bioavailability [3]: 34.39±6.07; Papp A→B at 120 min, 200 μM [4]: 3.77 ×10⁻⁶ cm/s; Papp B→A at 120 min, 200 μM [4]: 14.3 ×10⁻⁶ cm/s; efflux ratio at 120 min, 200 μM [4]: 3.79 |
| CC(C)OC(=O)[C@H](C)N[P@](=O)(CO[C@H](C)Cn1cnc2c(N)ncnc21)Oc1ccccc1 [TAF, tenofovir alafenamide fumarate] | 5.86 ×10⁻⁶ cm/s | 5.39 ×10⁻⁶ cm/s | – | – | – | – | – | – | Permeability classification (Caco-2 cells [2]; in words): low to moderately permeable; Papp A→B at 120 min (in vitro [5]): 3.45 ×10⁻⁶ cm/s; Papp B→A at 120 min (in vitro [5]): 17.8 ×10⁻⁶ cm/s; inhibition at 120 min, 100 μM (P-gp): 0% |
| C[C@@H]1CCO[C@H]2Cn3cc(C(=O)NCc4ccc(F)cc4F)c(=O)c(O)c3C(=O)N12 [Dolutegravir] | – | – | – | – | 40.2 ×10⁻⁶ cm/s | 84.3 ×10⁻⁶ cm/s | – | – | Permeability classification (Caco-2 cells [7]): high permeable |
| C[C@H]1O[C@@H](O[C@H]2[C@@H](O)C[C@H](O[C@H]3[C@@H](O)C[C@H](O[C@H]4CC[C@@]5(C)[C@H](CC[C@@H]6[C@@H]5C[C@@H](O)[C@]5(C)[C@@H](C7=CC(=O)OC7)CC[C@]65O)C4)O[C@@H]3C)O[C@@H]2C)C[C@H](O)[C@@H]1O [Digoxin] | – | – | 0.816 ×10⁻⁶ cm/s | 15.5 ×10⁻⁶ cm/s | 4.5 ×10⁻⁶ cm/s | 28.9 ×10⁻⁶ cm/s | 1.12 ×10⁻⁶ cm/s | 14.2 ×10⁻⁶ cm/s | Papp A→B (in vitro [5]): 1.94 ×10⁻⁶ cm/s; Papp B→A (in vitro [5]): 20.5 ×10⁻⁶ cm/s |
| CC(C)CN(C[C@@H](O)[C@H](Cc1ccccc1)NC(=O)O[C@H]1CO[C@H]2OCC[C@H]21)S(=O)(=O)c1ccc(N)cc1 [Darunavir] | – | – | – | – | – | – | 8.83 ×10⁻⁶ cm/s | 21.7 ×10⁻⁶ cm/s | – |
